Where “and” joins values, the source holds several entries; their conditions need not be identical. Identical values can stand only once. Like-named read-outs stand apart in the source and are kept apart here.
What was measured:
Ebola virus = conditions: in vivo
[1] = in vivo; cited from earlier work
COLLAGEN = conditions: cited from earlier work
[2] = in vivo
[3] = mouse, in vivo; cited from earlier work
(CAT B) CATHEPSIN B [4] = molecular target: T1, (CAT B) CATHEPSIN B (Homo sapiens, UniProt P07858); conditions: cited from earlier work
(CAT B) CATHEPSIN B [5] = molecular target: T1, (CAT B) CATHEPSIN B; format: biochemical
Ebolavirus Sudan Gulu = format: cell-based
TNF ALPHA = TNF ALPHA (Homo sapiens, UniProt P01375); conditions: cited from earlier work
[6] = in vivo, cited from earlier work
S-ADENOSYL HO[…] (SAHH) = S-ADENOSYL HO[…] (SAHH) (Homo sapiens, UniProt P23526); conditions: cited from earlier work
[7] = system: G9a/GLP-mediated dimethylation of histone 3 on lysine 9; conditions: cited from earlier work
MCF7 cells = conditions: cited from earlier work
GLP = molecular target: T2, GLP (Homo sapiens, UniProt Q9H9B1); conditions: cited from earlier work
T2 sequence (Q9H9B1 1-1298): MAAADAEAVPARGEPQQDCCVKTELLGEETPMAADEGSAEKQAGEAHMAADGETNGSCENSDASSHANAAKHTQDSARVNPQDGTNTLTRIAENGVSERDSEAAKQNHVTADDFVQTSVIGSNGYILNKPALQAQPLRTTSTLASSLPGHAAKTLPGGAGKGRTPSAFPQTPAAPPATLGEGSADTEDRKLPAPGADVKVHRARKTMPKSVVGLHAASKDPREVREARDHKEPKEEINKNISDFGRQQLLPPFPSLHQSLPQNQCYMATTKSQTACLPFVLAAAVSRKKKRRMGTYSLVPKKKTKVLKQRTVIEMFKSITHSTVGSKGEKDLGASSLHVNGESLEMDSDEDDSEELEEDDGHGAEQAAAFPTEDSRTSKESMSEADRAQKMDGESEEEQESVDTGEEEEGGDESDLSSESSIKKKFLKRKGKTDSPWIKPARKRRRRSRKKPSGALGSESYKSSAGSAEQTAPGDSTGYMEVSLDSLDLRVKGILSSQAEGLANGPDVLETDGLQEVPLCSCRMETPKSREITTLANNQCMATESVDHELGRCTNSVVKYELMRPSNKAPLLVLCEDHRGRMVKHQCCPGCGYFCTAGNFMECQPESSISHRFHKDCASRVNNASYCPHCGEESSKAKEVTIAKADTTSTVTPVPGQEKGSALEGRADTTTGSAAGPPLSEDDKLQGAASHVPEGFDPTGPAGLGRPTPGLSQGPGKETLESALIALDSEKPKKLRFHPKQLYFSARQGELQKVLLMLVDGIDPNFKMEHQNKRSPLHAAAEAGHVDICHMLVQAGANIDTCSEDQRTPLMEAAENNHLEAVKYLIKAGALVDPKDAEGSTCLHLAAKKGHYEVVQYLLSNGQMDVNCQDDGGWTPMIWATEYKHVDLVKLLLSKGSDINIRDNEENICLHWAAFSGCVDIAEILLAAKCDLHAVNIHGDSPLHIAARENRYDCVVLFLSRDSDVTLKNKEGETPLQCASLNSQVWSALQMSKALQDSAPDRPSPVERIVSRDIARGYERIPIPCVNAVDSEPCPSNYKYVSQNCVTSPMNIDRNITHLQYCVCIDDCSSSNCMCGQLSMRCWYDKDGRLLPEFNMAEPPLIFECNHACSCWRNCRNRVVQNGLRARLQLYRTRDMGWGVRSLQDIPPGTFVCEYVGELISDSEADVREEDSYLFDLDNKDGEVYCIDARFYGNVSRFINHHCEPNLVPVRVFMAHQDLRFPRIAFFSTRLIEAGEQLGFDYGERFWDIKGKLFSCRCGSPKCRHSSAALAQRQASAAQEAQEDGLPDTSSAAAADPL

folate = conditions: cited from earlier work

TNF ALPHA, sequence (P01375 whole entry, species assumed): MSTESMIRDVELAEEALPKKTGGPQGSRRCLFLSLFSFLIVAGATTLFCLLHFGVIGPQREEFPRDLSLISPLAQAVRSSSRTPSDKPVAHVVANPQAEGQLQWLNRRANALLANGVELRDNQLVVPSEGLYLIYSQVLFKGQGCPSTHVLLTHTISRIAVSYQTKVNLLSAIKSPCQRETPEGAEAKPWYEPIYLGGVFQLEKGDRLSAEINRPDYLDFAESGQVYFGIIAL
S-ADENOSYL HO[…] (SAHH), sequence (P23526 whole entry, species assumed): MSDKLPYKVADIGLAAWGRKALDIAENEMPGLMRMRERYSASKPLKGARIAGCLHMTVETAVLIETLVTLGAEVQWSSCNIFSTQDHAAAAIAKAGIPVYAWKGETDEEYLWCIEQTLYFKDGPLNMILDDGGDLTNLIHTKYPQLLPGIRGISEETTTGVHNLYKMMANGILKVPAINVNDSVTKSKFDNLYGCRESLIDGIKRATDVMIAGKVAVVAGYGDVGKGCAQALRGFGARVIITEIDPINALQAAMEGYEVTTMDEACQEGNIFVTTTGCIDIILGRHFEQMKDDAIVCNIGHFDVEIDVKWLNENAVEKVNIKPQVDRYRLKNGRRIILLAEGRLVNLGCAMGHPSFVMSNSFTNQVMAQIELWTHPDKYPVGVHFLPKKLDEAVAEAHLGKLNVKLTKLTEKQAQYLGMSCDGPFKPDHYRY

For `Nc1nccc2c1ncn2[C@@H]1C=C(CO)[C@@H](O)[C@H]1O` [3-DEAZANEPLANOCIN A], the “Residual estimated viral load” value (Ebola virus) was 10^5 pfu/ml and 10^7 pfu/ml and 10^8 pfu/ml.

For `Nc1ncnc2c1ncn2[C@@H]1O[C@H](COP(=O)(O)O)[C@@H](O)[C@H]1O` [ADENOSINE MONOPHOSPHATE], the LD50 [1] is listed as 2900 mg/kg.

In the case of `N=C(N)NCCC[C@H](N)C(=O)O` [Arginine], the ED50 (COLLAGEN) is listed as 2.5 g.

For `COc1ccc2cc3[n+](cc2c1OC)CCc1cc2c(cc1-3)OCO2` [BERBERINE], the LD50 [2] is listed as 2072 g, the “Oral LD50” value [3] is listed as “(mouse): >29,586 mg/kg” and the IC50 ((CAT B) CATHEPSIN B [4]) is listed as 550 µM. The ED50 ((CAT B) CATHEPSIN B [5]) was 0.185 g/day and the “residual viral load after the product (sequential)” value (from here on “residual viral load”) (Ebola virus) was 235 pfu/ml.

For `CC1(C)CC[C@]2(C(=O)O)CC[C@]3(C)C(=CC[C@@H]4[C@@]5(C)CC[C@H](O)C(C)(C)[C@@H]5CC[C@]43C)[C@@H]2C1` [BETA-OLEANOLIC ACID], the IC50 ((CAT B) CATHEPSIN B [4]) is given as 9 µM, the ED50 ((CAT B) CATHEPSIN B [5]) is given as 0.004 g and the “residual viral load” value (Ebola virus) is given as 1875 pfu/ml.

For `C[C@H]1[C@H](C)CC[C@]2(C(=O)O)CC[C@]3(C)C(=CC[C@@H]4[C@@]5(C)CC[C@H](O)C(C)(C)[C@@H]5CC[C@]43C)[C@H]12` [BETA-URSOLIC ACID], the IC50 ((CAT B) CATHEPSIN B [4]) is given as 10 µM and the “residual viral load” value (Ebola virus) is given as 12500 pfu/ml.

For `Nc1nccc2c1ncn2[C@@H]1O[C@H](CO)[C@@H](O)[C@H]1O` [CA-C3-ADO, 3-deaza-adenosine], the “Molarity at last dilution” value (Ebolavirus Sudan Gulu) was 200 µM.

In the case of `COc1cc(/C=C/C(=O)CC(=O)/C=C/c2ccc(O)c(OC)c2)ccc1O` [CURCUMIN], the ED50 (TNF ALPHA) is given as 29 to 60 mg/kg and the “residual viral load” value (Ebola virus) is given as 25000 pfu/ml.

In the case of `CC(C)N(CCCNC(=O)Nc1ccc(C(C)(C)C)cc1)C[C@H]1O[C@@H](n2ccc3c(N)ncnc32)[C@H](O)[C@@H]1O` [EPZ004777], the “Rat LD50” value [6] is given as 590 mg/kg.

In the case of `CC(C)N(C[C@H]1O[C@@H](n2cnc3c(N)ncnc32)[C@H](O)[C@@H]1O)C1CC(CCc2nc3ccc(C(C)(C)C)cc3[nH]2)C1` (stereo partly drawn) [EPZ-5676], the “Molarity at last dilution” value (Ebolavirus Sudan Gulu) is reported as 0.4 µM.

`N[C@@H](CCS)C(=O)O` [HOMOCYSTEINE] showed an ED50 (E[…]) of 0.4725 g.

For `OC[C@H]1O[C@@H](n2cnc3c(O)ncnc32)[C@H](O)[C@@H]1O` [INOSINE], the ED50 (S-ADENOSYL HO[…] (SAHH)) is listed as 29 to 60 mg/kg.

For `O=c1c(O)c(-c2ccc(O)cc2)oc2cc(O)cc(O)c12` [Kaemferol], the LD50 [1] is given as 2170 mg/kg.

In the case of `COc1c(C)c2c(c(O)c1C/C=C(\C)CCC(=O)O)C(=O)OC2` [Mycophenolic acid], the “Residual estimated viral load” value (Ebola virus) is reported as 2 × 10^6 pfu/ml.

In the case of `CCCCN1C[C@H](O)[C@@H](O)[C@H](O)[C@H]1CO` [N-B-DEOXYNOJIRIMYCIN], the ED50 (α-glucosidase) is given as 32.85 mg, the LD50 ([6]; rat, po) is given as “LD50 1,300 mg mg kg-1” and the “Residual estimated viral load” value (Ebola virus) is given as 10^7 pfu/ml.

In the case of `NCCC[C@H](N)C(=O)O` [Ornithine], the ED50 (COLLAGEN) is given as 3.5 g.

In the case of `O=c1c(O)c(-c2ccc(O)c(O)c2)oc2cc(O)cc(O)c12` [QUERCETIN], the “Oral LD50” value ([6]; rat, po) is given as “(rat): 161 mg/kg”, the LD50 [2] is given as 11.27 g and the IC50 ((CAT B) CATHEPSIN B [4]) is given as 11 µM. The ED50 ((CAT B) CATHEPSIN B [5]) was 0.03 g and the “residual viral load” value (Ebola virus) was 469 pfu/ml.

For `CC(C)N(CCCNC(=O)Nc1ccc(C(C)(C)C)cc1)C[C@H]1O[C@@H](n2cc(Br)c3c(N)ncnc32)[C@H](O)[C@@H]1O` [SGC 0946], the “Rat LD50” value [6] is given as 590 mg/kg and the LD50 [2] is given as 41.3 g.

For `COc1cc2c(NC3CCN(CC4CCCCC4)CC3)nc(N3CCCN(C(C)C)CC3)nc2cc1OCCCN1CCCCC1` [UNC0631], the IC50 [7] is given as 0.004 µM and the LD50 [1] is given as 2 mg/kg.

For `COc1cc2c(NC3CCN(C4CCCCC4)CC3)nc(N3CCCN(C(C)C)CC3)nc2cc1OCCCN1CCCCC1` [UNC0646], the EC50 (MCF7 cells) is listed as 4.7 µM and the IC50 (GLP) is listed as 0.015 µM.

For `[O]=[V]([O-])([O-])[O-]` [VANADATE], the “residual viral load” value (Ebola virus) was 212 pfu/ml.

For `O=C1O[C@H]([C@@H](O)CO)C(O)=C1O` [VITAMIN C], the ED50 (TNF ALPHA) is listed as 29 to 60 mg/kg, the LD50 [1] is listed as 11,900 mg/kg and the “residual viral load” value (Ebola virus) is listed as 50000 pfu/ml.

In the case of `NC(=O)c1ncn([C@@H]2O[C@H](CO)[C@@H](O)[C@H]2O)n1` [ribovirin], the “Molarity at last dilution” value (Ebolavirus Sudan Gulu) is reported as 25 µM.

For `NC(CCSCCCCC(=O)O)C(=O)O` (stereo not drawn) [s-carboxybutyl DL homocysteine], the LD50 [1] is given as 500 mg/kg.

For epigallocatechin-3 gallate [EGCG], the IC50 (folate) is listed as 34.8 µM and the “residual viral load” value (Ebola virus) is listed as 106 pfu/ml.

Reference: patent US10369166B2 (priority 2014, dated 2019)
